The source of these data is ChEMBL document CHEMBL5550143, “Modulation of proteasome subunit selectivity of syringolins” (Bioorg Med Chem, 2024).

Calls of active or inactive are those of the source. The calls are words filed in the database; no cut-off is given here. Bounds are passed on as bounds.

The subject of one assay is LNCaP. Briefly: Cytotoxicity against human LNCaP cells incubated for 72 hrs by CCK8 assay. (Formazan colour is commonly taken as a measure of viable cells.)
The test system of another assay is DU-145. As to the kind of experiment: Cytotoxicity against human DU-145 cells incubated for 72 hrs by CCK8 assay. As to conditions: DU-145, 72 h.
The next assay has as its system MM1.S. As to the kind of experiment: Cytotoxicity against human MM1.S cells. It is filed as functional, cell-based.
The target in assay [1] is T1, Proteasome component C5 (Homo sapiens) (UniProt P20618).
T1 sequence (whole entry): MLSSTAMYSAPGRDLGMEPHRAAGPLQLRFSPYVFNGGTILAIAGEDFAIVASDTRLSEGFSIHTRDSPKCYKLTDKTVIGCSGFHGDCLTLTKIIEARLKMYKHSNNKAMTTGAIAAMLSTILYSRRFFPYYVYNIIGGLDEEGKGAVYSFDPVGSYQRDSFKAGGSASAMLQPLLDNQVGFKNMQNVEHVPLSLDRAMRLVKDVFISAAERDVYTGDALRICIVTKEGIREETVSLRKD
Briefly: Inhibition of 20S proteasome beta-1 (unknown origin) upto 150 uM.

The target in assay [2] is T2, Proteasome Macropain subunit MB1 (Homo sapiens, UniProt P28074).
T2 sequence (P28074 whole entry): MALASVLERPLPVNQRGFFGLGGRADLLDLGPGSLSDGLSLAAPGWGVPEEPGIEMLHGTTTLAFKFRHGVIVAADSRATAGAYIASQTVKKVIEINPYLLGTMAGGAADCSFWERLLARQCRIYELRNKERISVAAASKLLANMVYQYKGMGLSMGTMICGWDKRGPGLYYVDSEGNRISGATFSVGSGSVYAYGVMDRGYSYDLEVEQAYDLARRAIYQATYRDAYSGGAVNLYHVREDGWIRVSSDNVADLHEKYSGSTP
As to the kind of experiment: Inhibition of 20S proteasome beta-5 in human erythrocytes using Suc-LLVY-AMC as substrate by AK-740 assay. Also on record: species or system Erythrocyte.

One may read the IC50 as the concentration that inhibits the measured activity by half. On to `CCCCCCCCCC(=O)N[C@@H](Cc1ccccc1)C(=O)N[C@H]1CCCCNC(=O)/C=C/[C@H](Cc2ccc(O)cc2)NC1=O`, for which the IC50 in the assay on LNCaP is 575 nM; in the assay on DU-145, over 1000 nM.

As for `CC(C)[C@H](NC(=O)N[C@H](C(=O)N[C@H]1/C=C/CCNC(=O)/C=C/[C@H](C(C)C)NC1=O)C(C)C)C(=O)O`, in the assay on MM1.S, the 50% inhibitory concentration (IC50) was 8500 nM.

`CCCCCCCCCC(=O)N[C@@H](Cc1ccccc1)C(=O)N[C@H]1CCCCNC(=O)/C=C/[C@H](Cc2ccc(CC(=N)N)cc2)NC1=O`: the IC50 in the assay on LNCaP and in the assay on DU-145 was over 1000 nM each time.

`CCCCCCCCCC(=O)N[C@@H](Cc1ccccc1)C(=O)N[C@H]1CCCCNC(=O)/C=C/[C@H](Cc2ccc(NC(=N)N)cc2)NC1=O`: the IC50 in the assay on LNCaP and in the assay with DU-145 was over 1000 nM throughout.

Consider `CCCCCCCCCC(=O)N[C@@H](Cc1ccccc1)C(=O)N[C@H]1CCCCNC(=O)/C=C/[C@H](Cc2ccc(N(C)C)cc2)NC1=O`, for which the IC50 is 94 nM with LNCaP and 101 nM in the assay with DU-145.

On to `CCCCCCCCCC(=O)N[C@@H](Cc1ccccc1)C(=O)N[C@H]1CCCCNC(=O)/C=C/[C@H](C(C)C)NC1=O`, for which the values for the IC50 in the assay on LNCaP and in the assay on DU-145 were 91.2 nM and 119 nM, respectively.

In the case of `CCCCCCCCCC(=O)N[C@@H](Cc1ccccc1)C(=O)N[C@H]1CCCCNC(=O)/C=C/[C@H](CC(=O)O)NC1=O`, the IC50 in the assay with LNCaP and with DU-145 was over 1000 nM each time.

Regarding `CCCCCCCCCC(=O)N[C@@H](Cc1ccccc1)C(=O)N[C@H]1CCCCNC(=O)/C=C/[C@H](Cc2ccc([N+](=O)[O-])cc2)NC1=O`, the IC50 with LNCaP and in the assay on DU-145 was over 1000 nM each time.

As for `CCCCCCCCCC(=O)N[C@@H](Cc1ccccc1)C(=O)N[C@H]1CCCCNC(=O)/C=C/[C@H](Cc2ccc(CN)cc2)NC1=O`, the IC50 in the assay with LNCaP and in the assay with DU-145 was over 1000 nM each time.

In the case of `CC(C)[C@H](NC(=O)N[C@H](C(=O)N[C@H]1CCCCNC(=O)/C=C/[C@H](C(C)C)NC1=O)C(C)C)C(=O)O`, the inhibition entry in assay [1] is “inactive”.

`CCCCCCCCCC(=O)N[C@@H](Cc1ccccc1)C(=O)N[C@H]1CCCCNC(=O)/C=C/[C@H](Cc2ccc(C(=O)O)cc2)NC1=O`: the IC50 in the assay with LNCaP and in the assay on DU-145 was over 1000 nM throughout.

In the case of `CCCCCCCCCC(=O)N[C@@H](Cc1ccccc1)C(=O)N[C@H]1CCCCNC(=O)/C=C/[C@H](Cc2ccc(N)cc2)NC1=O`, the figures for the IC50 in the assay on LNCaP and in the assay on DU-145 were 181 nM and 292 nM, respectively.

Consider `CCCCCCCCCC(=O)N[C@@H](Cc1ccccc1)C(=O)N[C@H]1CCCCNC(=O)/C=C/[C@H](Cc2ccc(OC)cc2)NC1=O`, for which the 50% inhibitory concentration (IC50) in the assay on LNCaP came to 116 nM; in the assay with DU-145 it was 487 nM.

Consider `CCCCCCCCCC(=O)N[C@@H](Cc1ccccc1)C(=O)N[C@H]1CCCCNC(=O)/C=C/[C@H](Cc2ccc(C(N)=O)cc2)NC1=O`, for which the IC50 in the assay with LNCaP and in the assay on DU-145 was over 1000 nM throughout.

Take `CCCCCCCCCC(=O)N[C@@H](Cc1ccccc1)C(=O)N[C@H]1CCCCNC(=O)/C=C/[C@H](Cc2ccc(NC)cc2)NC1=O`: the results for the IC50 with LNCaP and with DU-145 were 103 nM and 142 nM, respectively.

On to `CCCCCCCCCC(=O)N[C@@H](Cc1ccccc1)C(=O)N[C@H]1CCCCNC(=O)/C=C/[C@H](Cc2ccc(C#N)cc2)NC1=O`, for which the IC50 in the assay with LNCaP was 920 nM; in the assay with DU-145 it was over 1000 nM.

In the case of `CCCCCCCCCC(=O)N[C@@H](Cc1ccccc1)C(=O)N[C@H]1CCCCNC(=O)/C=C/[C@H](Cc2ccc(CN(C)C)cc2)NC1=O`, the IC50 in the assay on LNCaP and with DU-145 was over 1000 nM in each case.

`CCCCCCCCCC(=O)N[C@@H](Cc1ccccc1)C(=O)N[C@H]1CCCCNC(=O)/C=C/[C@H](Cc2ccccc2)NC1=O`: the half-maximal inhibitory concentration (IC50) with LNCaP stood at 43.5 nM; with DU-145, 49.1 nM.

Turning to `CCCCCCCCCC(=O)N[C@@H](Cc1ccccc1)C(=O)N[C@H]1CCCCNC(=O)/C=C/[C@H](Cc2ccc(B(O)O)cc2)NC1=O`, the IC50 in the assay on LNCaP was 882 nM; with DU-145 it was 723 nM.

As a reminder, the Ki is the dissociation constant of the complex between target and ligand, obtained from inhibition or displacement. High values mean weaker binding, low ones tighter binding. In assay [2], `CCCCCCCCCC(=O)N[C@@H](Cc1ccccc1)C(=O)N[C@H]1CCCCNC(=O)/C=C/[C@H](CCC(=O)O)NC1=O` displayed a Ki of over 10000 nM. For the same molecule, the IC50 in the assay on LNCaP and in the assay on DU-145 was over 1000 nM throughout.
